Data reported in patent publication US20100267561A1, “HERBICIDAL PYRIDAZINONE DERIVATIVES” (priority 2007, published 2010).

What was measured:
Type in all cases: in vivo
[1] = tested on: barnyardgrass (Echinochloa crus-galli); experiment: Test B flooded paddy test plant response
Method in brief: (§1)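 Rice, umbrella sedge, ducksalad and barnyardgrass at 2-leaf stage; pots flooded to 3 cm, compounds applied into paddy water, depth held throughout. Greenhouse 13 to 15 days, then visual rating vs untreated controls on 0–100 scale (0 no effect, 100 complete control); dash means no test result.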

[2] = tested on: ducksalad (Heteranthera limosa); experiment: Test B flooded paddy test plant response
Method in brief: as §1

rice (Oryza sativa) = experiment: Test B flooded paddy test plant response
Method in brief: as §1

[3] = tested on: umbrella sedge (Cyperus difformis); experiment: Test B flooded paddy test plant response
Method in brief: as §1

[4] = tested on: giant foxtail (Setaria faberii); experiment: Test B pre-/postemergence plant response; conditions: for Foxtail, Giant plant response rating: 8 g ai/ha
Description: (§2) Seeds of plant species selected from blackgrass (Alopecurus myosuroides), downy bromegrass (Bromus tectorum), green foxtail (Setaria viridis), Italian ryegrass (Lolium multiflorum), wheat (Triticum aestivum), wild oat (Avena fatua), catchweed bedstraw (Galium aparine), bermudagrass (Cynodon dactylon), surinam grass (Brachiaria decumbens), cocklebur (Xanthium strumarium), corn (Zea mays), large crabgrass (Digitaria sanguinalis), woolly cupgrass (Eriochloa villosa), giant foxtail (Setaria faberii), goosegrass (Eleusine indica), johnsongrass (Sorghum halepense), kochia (Kochia scoparia), lambsquarters (Chenopodium album), morningglory (Ipomoea coccinea), eastern black (E.B.) nightshade (Solanum ptycanthum), yellow nutsedge (Cyperus esculentus), pigweed (Amaranthus retroflexus), common ragweed (Ambrosia elation), Russian thistle (Salsola iberica), soybean (Glycine max), common (oilseed) sunflower (Helianthus annuus), and velvetleaf (Abutilon theophrasti) were planted and treated preemergence with test chemicals formulated in a non-phytotoxic solvent mixture which included a surfactant.
(§3) At the same time, plants selected from these crop and weed species and also winter barley (Hordeum vulgare), canarygrass (Phalaris minor), chickweed (Stellaria media) and windgrass (Apera spica-venti) were treated with postemergence applications of some of the test chemicals formulated in the same manner. Plants ranged in height from 2 to 18 cm (1- to 4-leaf stage) for postemergence treatments.
(§4) Plant species in the flooded paddy test consisted of rice (Oryza sativa), umbrella sedge (Cyperus difformis), ducksalad (Heteranthera limosa) and barnyardgrass (Echinochloa crus-galli) grown to the 2-leaf stage for testing. At time of treatment, test pots were flooded to 3 cm above the soil surface, treated by application of test compounds directly to the paddy water, and then maintained at that water depth for the duration of the test. Treated plants and controls were maintained in a greenhouse for 13 to 15 days, after which time all species were compared to controls and visually evaluated. Plant response ratings, summarized in Table B, are based on a scale of 0 to 100 where 0 is no effect and 100 is complete control. A dash (-) response means no test result.

[5] = tested on: downy bromegrass (Bromus tectorum); experiment: Test B pre-/postemergence plant response; conditions: for Bromegrass, Downy plant response rating: 8 g ai/ha
Description: as §2, §3, §4

[6] = tested on: Russian thistle (Salsola iberica); experiment: Test B pre-/postemergence plant response; conditions: Preemergence
Description: as §2, §3, §4

[7] = tested on: bermudagrass (Cynodon dactylon); experiment: Test B pre-/postemergence plant response; conditions: for Bermudagrass plant response rating: 8 g ai/ha
Description: as §2, §3, §4

[8] = tested on: velvetleaf (Abutilon theophrasti); experiment: Test B pre-/postemergence plant response; conditions: for Velvetleaf plant response rating: 8 g ai/ha
Description: as §2, §3, §4

[9] = tested on: Italian ryegrass (Lolium multiflorum); experiment: Test B pre-/postemergence plant response; conditions: for Ryegrass, Italian plant response rating: 8 g ai/ha
Description: as §2, §3, §4

[10] = tested on: woolly cupgrass (Eriochloa villosa); experiment: Test B pre-/postemergence plant response; conditions: for Cupgrass, Woolly plant response rating: 8 g ai/ha
Description: as §2, §3, §4

[11] = tested on: cocklebur (Xanthium strumarium); experiment: Test B pre-/postemergence plant response; conditions: for Cocklebur plant response rating: 8 g ai/ha
Description: as §2, §3, §4

[12] = tested on: yellow nutsedge (Cyperus esculentus); experiment: Test B pre-/postemergence plant response; conditions: for Nutsedge, Yellow plant response rating: 8 g ai/ha
Description: as §2, §3, §4

corn (Zea mays) = experiment: Test B pre-/postemergence plant response; conditions: for Corn plant response rating: 8 g ai/ha
Description: as §2, §3, §4

[13] = Flood (flooded paddy test), 62 g ai/ha, scale 0 to 100, 0 no effect, 100 complete control
[14] = Flood (flooded paddy test), 125 g ai/ha, scale 0 to 100, 0 no effect, 100 complete control
[15] = Flood (flooded paddy test), 250 g ai/ha, scale 0 to 100, 0 no effect, 100 complete control
[16] = Flood, 31 g ai/ha, scale 0 to 100
[17] = Postemergence, 16 g ai/ha, scale 0 to 100
[18] = Postemergence, 31 g ai/ha, scale 0 to 100, 0 no effect, 100 complete control
[19] = Postemergence, 62 g ai/ha, scale 0 to 100, 0 no effect, 100 complete control
[20] = Preemergence, 16 g ai/ha, scale 0 to 100 (0 no effect, 100 complete control)
[21] = Preemergence, 31 g ai/ha, 0 to 100 scale, 0 no effect, 100 complete control
[22] = Preemergence, 62 g ai/ha, scale 0 to 100

## Cc1cc(-c2ccc(Cl)cc2)nn1-c1c(OC(=O)c2cccc(Cl)c2)cnn(C)c1=O [Compound 32]
[1]; [13]
  Plant response rating, Barnyardgrass: 20
[1]; [14]
  Plant response rating, Barnyardgrass: 65
[1]; [15]
  Plant response rating, Barnyardgrass: 70
[1]; [16]
  Plant response rating, Barnyardgrass: 10
[2]; [13]
  Plant response rating, Ducksalad: 30
[2]; [14]
  Plant response rating, Ducksalad: 40
[2]; [15]
  Plant response rating, Ducksalad: 40
[2]; [16]
  Plant response rating, Ducksalad: 30
Rice (Oryza sativa); [13]
  Plant response rating, Rice: 0
Rice (Oryza sativa); [14]
  Plant response rating, Rice: 30
Rice (Oryza sativa); [15]
  Plant response rating, Rice: 65
Rice (Oryza sativa); [16]
  Plant response rating, Rice: 0
[3]; [13]
  Plant response rating, Sedge, Umbrella: 30
[3]; [14]
  Plant response rating, Sedge, Umbrella: 30
[3]; [15]
  Plant response rating, Sedge, Umbrella: 30
[3]; [16]
  Plant response rating, Sedge, Umbrella: 20
[4]; postemergence, 0-100 scale
  Foxtail, Giant plant response rating: 75
[4]; [17]
  Plant response rating, Foxtail, Giant: 80
[4]; [18]
  Plant response rating, Foxtail, Giant: 98
[4]; [19]
  Plant response rating, Foxtail, Giant: 100
[4]; [20]
  Plant response rating, Foxtail, Giant: 95
[4]; [21]
  Plant response rating, Foxtail, Giant: 100
[4]; [22]
  Plant response rating, Foxtail, Giant: 100
[4]; Preemergence, scale 0 to 100
  Foxtail, Giant plant response rating: 85
[5]; postemergence, 0-100 scale
  Bromegrass, Downy plant response rating: 5
[5]; [17]
  Plant response rating, Bromegrass, Downy: 10
[5]; [18]
  Plant response rating, Bromegrass, Downy: 45
[5]; [19]
  Plant response rating, Bromegrass, Downy: 60
[5]; [20]
  Plant response rating, Bromegrass, Downy: 0
[5]; [21]
  Plant response rating, Bromegrass, Downy: 0
[5]; [22]
  Plant response rating, Bromegrass, Downy: 75
[5]; Preemergence, scale 0 to 100
  Bromegrass, Downy plant response rating: 0
[6]; 16 g ai/ha, scale 0 to 100 (0 no effect, 100 complete control)
  Plant response rating, Russian Thistle: 0
[6]; 31 g ai/ha, 0 to 100 scale, 0 no effect, 100 complete control
  Plant response rating, Russian Thistle: 0
[6]; 62 g ai/ha, scale 0 to 100
  Plant response rating, Russian Thistle: 0
[6]; 8 g ai/ha, scale 0 to 100
  Russian Thistle plant response rating: 0
[7]; postemergence, 0-100 scale
  Bermudagrass plant response rating: 60
[7]; [17]
  Plant response rating, Bermudagrass: 65
[7]; [18]
  Plant response rating, Bermudagrass: 100
[7]; [19]
  Plant response rating, Bermudagrass: 100
[7]; Preemergence, scale 0 to 100 (0 no effect, 100 complete control)
  Bermudagrass plant response rating: 0
[7]; [20]
  Plant response rating, Bermudagrass: 0
[7]; [21]
  Plant response rating, Bermudagrass: 0
[7]; [22]
  Plant response rating, Bermudagrass: 0
[8]; postemergence, 0-100 scale
  Velvetleaf plant response rating: 0
[8]; [17]
  Plant response rating, Velvetleaf: 0
[8]; [19]
  Plant response rating, Velvetleaf: 0
[8]; [20]
  Plant response rating, Velvetleaf: 0
[8]; [21]
  Plant response rating, Velvetleaf: 0
[8]; [22]
  Plant response rating, Velvetleaf: 0
[8]; Preemergence, scale 0 to 100
  Velvetleaf plant response rating: 0
[9]; postemergence, 0-100 scale
  Ryegrass, Italian plant response rating: 5
[9]; [17]
  Plant response rating, Ryegrass, Italian: 85
[9]; [18]
  Plant response rating, Ryegrass, Italian: 95
[9]; [19]
  Plant response rating, Ryegrass, Italian: 95
[9]; [20]
  Plant response rating, Ryegrass, Italian: 100
[9]; [21]
  Plant response rating, Ryegrass, Italian: 100
[9]; [22]
  Plant response rating, Ryegrass, Italian: 100
[9]; Preemergence, scale 0 to 100
  Ryegrass, Italian plant response rating: 90
[10]; postemergence, 0-100 scale
  Cupgrass, Woolly plant response rating: 75
[10]; [17]
  Plant response rating, Cupgrass, Woolly: 85
[10]; [18]
  Plant response rating, Cupgrass, Woolly: 100
[10]; [19]
  Plant response rating, Cupgrass, Woolly: 100
[10]; [20]
  Plant response rating, Cupgrass, Woolly: 70
[10]; [21]
  Plant response rating, Cupgrass, Woolly: 80
[10]; [22]
  Plant response rating, Cupgrass, Woolly: 85
[10]; Preemergence, scale 0 to 100
  Cupgrass, Woolly plant response rating: 55
[11]; postemergence, 0-100 scale
  Cocklebur plant response rating: 0
[11]; [17]
  Plant response rating, Cocklebur: 0
[11]; [18]
  Plant response rating, Cocklebur: 0
[11]; [19]
  Plant response rating, Cocklebur: 0
[11]; [20]
  Plant response rating, Cocklebur: 0
[11]; [21]
  Plant response rating, Cocklebur: 0
[11]; [22]
  Plant response rating, Cocklebur: 0
[11]; Preemergence, scale 0 to 100
  Cocklebur plant response rating: 0
[12]; postemergence, 0-100 scale
  Nutsedge, Yellow plant response rating: 0
[12]; [17]
  Plant response rating, Nutsedge, Yellow: 0
[12]; [18]
  Plant response rating, Nutsedge, Yellow: 0
[12]; [19]
  Plant response rating, Nutsedge, Yellow: 0
[12]; [20]
  Plant response rating, Nutsedge, Yellow: 0
[12]; [21]
  Plant response rating, Nutsedge, Yellow: 0
[12]; [22]
  Plant response rating, Nutsedge, Yellow: 0
[12]; Preemergence, scale 0 to 100
  Nutsedge, Yellow plant response rating: 0
Corn (Zea mays); postemergence, 0-100 scale
  Corn plant response rating: 0
Corn (Zea mays); [17]
  Plant response rating, Corn: 0
Corn (Zea mays); [18]
  Plant response rating, Corn: 0
Corn (Zea mays); [19]
  Plant response rating, Corn: 0
Corn (Zea mays); [20]
  Plant response rating, Corn: 45
Corn (Zea mays); [21]
  Plant response rating, Corn: 60
Corn (Zea mays); [22]
  Plant response rating, Corn: 95
Corn (Zea mays); Preemergence, scale 0 to 100
  Corn plant response rating: 0
